Experimental findings from patent publication US7524853B2 (Solvay Pharmaceuticals B.V., priority 2003, dated 2009) are described below.

Type in all cases: cell-based
In experiment [1] the target is T1, 17β-hydroxysteroid dehydrogenase type 2 (17β-HSD type 2) (Homo sapiens, UniProt P37059).
T1 construct: expressed in transfected cells; host or cells: MCF-7
T1 sequence (P37059 1-387): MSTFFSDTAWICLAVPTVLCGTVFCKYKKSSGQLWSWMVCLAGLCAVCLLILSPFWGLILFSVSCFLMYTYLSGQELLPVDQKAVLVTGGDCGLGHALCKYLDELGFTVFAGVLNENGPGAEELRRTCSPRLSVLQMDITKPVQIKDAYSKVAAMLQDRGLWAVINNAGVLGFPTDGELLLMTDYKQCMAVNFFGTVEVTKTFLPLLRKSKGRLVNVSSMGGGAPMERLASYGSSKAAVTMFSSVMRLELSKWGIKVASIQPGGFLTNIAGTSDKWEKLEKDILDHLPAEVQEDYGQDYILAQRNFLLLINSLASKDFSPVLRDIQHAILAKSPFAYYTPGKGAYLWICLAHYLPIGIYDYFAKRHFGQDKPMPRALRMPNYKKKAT
The experiment can be described thus: Inhibition of 17β-HSD type 2 in MCF-7 cells stably expressing the isoenzyme (tritium labeled estradiol conversion, HPLC). The settings on record: MCF-7 cells expressing 17β-HSD type 2, 2 nM tritium labeled estradiol; for inhibition at 1 µM / inhibition at 10 µM: MCF7; for inhibition at 1 µM: read-out: % Inhibition HSD2 1 μM; for inhibition at 10 µM: read-out: % Inhibition HSD2 10 μM. From the text:
(§1) Biological Testing Materials and Methods 1. Inhibition of the 17β-hydroxysteroid dehydrocienase type 1, type 2 and type 3 enzyme
(§2) The compounds were screened in respect of 17β-HSD enzyme activity in vitro on established MCF-7 cell lines, each stably expressing one of the respective 17β-HSD isoenzymes. The interconversion of substrate by each isoenzyme and the 17β-HSD inhibiting activity of chemical compounds in these cell lines were detected by HPLC system.
(§3) Varying amounts of the test compounds were incubated in the growth medium of the 17β-HSD expressing cells together tritium labeled substrate (2 nM estrone for 17β-HSD type 1; 2 nM estradiol for 17β-HSD type 2; and 2 nM androstenedione for 17β-HSD type 3). The medium samples were removed after exact incubation time and the reaction is stopped by trichloroacetic acid (TCA). The samples were analyzed by HPLC-coupled flow scintillation analysis.
(§4) For each enzyme type, the HSD-inhibiting activity of an individual test compound was calculated by comparing the conversion of a control sample without any test compound (referred to as “Negative Control”) to the (reduced) conversion of the test sample containing the particular compound to be tested (referred to as “Test Sample”).
(§5) Two concentrations of each compound were used. The number of the compound refers to the numbers indicated in the Experimental Section.

In experiment [2] the target is T2, 17β-hydroxysteroid dehydrogenase type 3 (17β-HSD type 3) (Homo sapiens, UniProt P37058).
T2 construct: expressed in transfected cells; host or cells: MCF-7
T2 sequence (P37058 1-310): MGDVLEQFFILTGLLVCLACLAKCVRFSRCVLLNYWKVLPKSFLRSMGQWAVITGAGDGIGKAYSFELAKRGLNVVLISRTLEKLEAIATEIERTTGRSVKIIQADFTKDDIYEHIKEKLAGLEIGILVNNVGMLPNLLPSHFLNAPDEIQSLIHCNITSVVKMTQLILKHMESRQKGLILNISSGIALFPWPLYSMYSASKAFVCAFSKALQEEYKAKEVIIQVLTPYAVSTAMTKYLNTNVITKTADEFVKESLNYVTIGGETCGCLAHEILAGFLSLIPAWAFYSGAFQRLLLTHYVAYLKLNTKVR
The experiment can be described thus: Inhibition of 17β-HSD type 3 in MCF-7 cells stably expressing the isoenzyme (tritium labeled androstenedione conversion, HPLC). Particulars: MCF-7 cells expressing 17β-HSD type 3, 2 nM tritium labeled androstenedione; for inhibition at 1 µM / inhibition at 10 µM: MCF7; for inhibition at 1 µM: read-out: % Inhibition HSD3 1 μM; for inhibition at 10 µM: read-out: % Inhibition HSD3 10 μM.
Source text: as §1, §2, §3, §4, §5

Experiment [3] addresses T3, 17β-hydroxysteroid dehydrogenase type 1 (17β-HSD type 1) (Homo sapiens, UniProt P14061).
T3 construct: expressed in transfected cells; host or cells: MCF-7
T3 sequence (P14061 1-328): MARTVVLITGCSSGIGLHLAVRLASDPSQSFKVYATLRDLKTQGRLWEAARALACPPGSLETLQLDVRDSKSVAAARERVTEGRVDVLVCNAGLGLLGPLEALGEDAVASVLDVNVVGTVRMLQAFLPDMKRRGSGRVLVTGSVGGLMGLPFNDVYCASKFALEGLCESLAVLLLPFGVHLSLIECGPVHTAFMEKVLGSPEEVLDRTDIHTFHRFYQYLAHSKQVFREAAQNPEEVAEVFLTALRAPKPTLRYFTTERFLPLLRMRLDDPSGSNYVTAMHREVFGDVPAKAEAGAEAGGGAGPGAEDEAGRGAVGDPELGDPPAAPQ
In words: Inhibition of 17β-HSD type 1 in MCF-7 cells stably expressing the isoenzyme (tritium labeled estrone conversion, HPLC). Particulars: MCF-7 cells expressing 17β-HSD type 1, 2 nM tritium labeled estrone; for inhibition at 1 µM / inhibition at 10 µM: MCF7; for inhibition at 1 µM: read-out: % Inhibition HSD1 1 μM; for inhibition at 10 µM: read-out: % Inhibition HSD1 10 μM.
Source text: as §1, §2, §3, §4, §5

Structures are written as SMILES.

Take `Cc1nc2sc3c(c2c(=O)n1-c1ccccc1)CCCC3` [No. 24, 2-Methyl-3-phenyl-5,6,7,8-tetrahydro-3H-benzo[4,5]thieno[2,3-d]pyrimidin-4-one]: the results for the inhibition at 1 µM in experiment [1] (1 μM test compound), in experiment [2] (1 μM test compound) and in experiment [3] (1 μM test compound) were 4.1%, 17.1% and -7.5%, respectively. Also, the inhibition at 10 µM in experiment [1] (10 μM test compound) came out at 9.7%; in experiment [2] (10 μM test compound), 30.9%; in experiment [3] (10 μM test compound), 15.4%.

As to `CCC(C)Cn1c(-c2cc(OC)c(OC)c(OC)c2Cl)nc2sc3c(c2c1=O)CCC(Cl)(Cl)C3=O` (stereo not drawn) [No. 142, 7,7-Dichloro-2-(2-chloro-3,4,5-trimethoxyphenyl)-3-(2-methylbutyl)-6,7-dihydro-3H,5H-benzo[4,5]thieno[2,3-d]pyrimidine-4,8-dione], the values for the inhibition at 1 µM in experiment [1] (1 μM test compound), in experiment [2] (1 μM test compound) and in experiment [3] (1 μM test compound) were 6.2%, 8% and 32.8%, respectively. The inhibition at 10 µM in experiment [1] (10 μM test compound) is 10.5%; in experiment [2] (10 μM test compound), 24.1%; in experiment [3] (10 μM test compound), 52.7%.

Consider `CCCc1nc2sc3c(c2c(=O)n1Cc1cc(Br)ccc1OC)CCC(Br)C3=O` (stereo not drawn) [No. 96], for which the values for the inhibition at 1 µM in experiment [1] (1 μM test compound), in experiment [2] (1 μM test compound) and in experiment [3] (1 μM test compound) were 17.2%, 13% and 19.5%, respectively. Moreover, the inhibition at 10 µM amounted to 21.9% in experiment [1] (10 μM test compound), 37.5% in experiment [2] (10 μM test compound) and 65.1% in experiment [3] (10 μM test compound).

In the case of `CC(=O)OCc1nc2sc3c(c2c(=O)n1-c1ccccc1)CCCC3` [No. 39, Acetic acid 4-oxo-3-phenyl-3,4,5,6,7,8-hexahydro-benzo[4,5]thieno[2,3-d]pyrimidin-2-ylmethyl ester], the inhibition at 1 µM in experiment [1] (1 μM test compound) is 25%; in experiment [2] (1 μM test compound), 18.5%; in experiment [3] (1 μM test compound), 21.1%. The inhibition at 10 µM in experiment [1] (10 μM test compound) came out at 9.5%; in experiment [2] (10 μM test compound), 12.8%; in experiment [3] (10 μM test compound), 13.2%.

Turning to `COc1cc(-c2nc3sc4c(c3c(=O)n2Cc2ccccc2)CC(C)CC4)cc(OC)c1OC` (stereo not drawn) [No. 687, 3-Benzyl-6-methyl-2-(3,4,5-trimethoxyphenyl)-5,6,7,8-tetrahydro-3H-benzo[4,5]thieno[2,3-d]pyrimidin-4-one], the inhibition at 1 µM in experiment [1] (1 μM test compound) is 8.3%; in experiment [2] (1 μM test compound), 1.7%; in experiment [3] (1 μM test compound) it was -3.3%. Besides, the inhibition at 10 µM in experiment [1] (10 μM test compound) was 5.6%; in experiment [2] (10 μM test compound), 7.3%; in experiment [3] (10 μM test compound), 5.5%.

As for `COc1cccc(-c2nc3sc4c(c3c(=O)n2Cc2ccccc2)CCCC4)c1` [No. 78, 3-Benzyl-2-(m-methoxyphenyl)-5,6,7,8-tetrahydro-3H-benzo[4,5]thieno[2,3-d]pyrimidin-4-one], the inhibition at 1 µM was 9.1% in experiment [1] (1 μM test compound), -4.3% in experiment [2] (1 μM test compound) and 7.1% in experiment [3] (1 μM test compound). The inhibition at 10 µM in experiment [1] (10 μM test compound) is 7.8%; in experiment [2] (10 μM test compound), 27.6%; in experiment [3] (10 μM test compound), 28.5%.

Consider `CCCCC(CC)c1nc2sc3c(O)cccc3c2c(=O)n1CCc1cccs1` (stereo not drawn) [No. 644], for which the “% Inhibition HSD2 1 μM” value in experiment [1] (1 μM test compound) came out at 27.6%. Further, the “% Inhibition HSD2 10 μM” value in experiment [1] (10 μM test compound) worked out at 26.4%. In experiment [2] (1 μM test compound), the “% Inhibition HSD3 1 μM” value was found to be 13.9%. Moreover, in experiment [2] (10 μM test compound), the “% Inhibition HSD3 10 μM” value worked out at 19.8%. Further, in experiment [3] (1 μM test compound), the “% Inhibition HSD1 1 μM” value was determined as 29.8%. The “% Inhibition HSD1 10 μM” value in experiment [3] (10 μM test compound) was 28.4%.

On to `COc1cc(-c2nc3sc4c(O)cccc4c3c(=O)n2CC2CCCO2)c(Br)c(OC)c1OC` (stereo not drawn) [No. 133, 2-(2-Bromo-3,4,5-trimethoxyphenyl)-8-hydroxy-3-(tetrahydrofuran-2-ylmethyl)-3H-benzo[4,5]thieno[2,3-d]pyrimidin-4-one], for which the inhibition at 1 µM was 6.8% in experiment [1] (1 μM test compound), 18.7% in experiment [2] (1 μM test compound) and 18.2% in experiment [3] (1 μM test compound). In addition, the inhibition at 10 µM in experiment [1] (10 μM test compound) was 24.3%; in experiment [2] (10 μM test compound) it was 37.7%; in experiment [3] (10 μM test compound), 58.4%.
